Experimental data: publication PMC9861858, “Stereoselective Synthesis and Antiproliferative Activities of Tetrafunctional Diterpene Steviol Derivatives” (International Journal of Molecular Sciences, 2023)
In brackets after ≈: the same amount, converted by molar mass.

What was measured:
HeLa cells = experiment: MTT antiproliferative assay, HeLa; type: cell-based, human; conditions: Homo sapiens, HeLa, 72 h, values <20% considered negligible, read-out: Growth inhibition (%) ± SEM, HeLa
Procedure: (§1) The in vitro antiproliferative activities of the synthesised aminotriols 5–18 against a panel of different human cancer cell lines of gynecological origin, including cervical (SiHA and HeLa), breast (MCF7 and MDA-MB-231), ovary (A2780) cancers and NIH/3T3 healthy fibroblasts, were assayed by the MTT method. Cisplatin, a clinically applied anticancer agent was used as a reference compound, and the results are summarised in Figure 3 and Table S1 in the Supplementary Materials.
(§2) The growth-inhibitory effects of the presented terpenes were determined by a standard MTT [3-(4,5-dimethylthiazol2-yl)-2,5-diphenyltetrazolium bromide] assay against […] human cancer cell lines (cervical cancer HeLa and SiHa cell lines, breast cancer MCF-7 and MDA-MB-231 and ovarian cancer A2780). Murine embryonal fibroblast cells (NIH/3T3) were used to determine selectivity. All cell lines were purchased from the European Collection of Cell Cultures (Salisbury, UK). The cells were cultivated in Eagle’s minimal essential medium supplemented with 10% fetal bovine serum, 1% non-essential amino acids, and 1% Antibiotic-Antimycotic complex (penicillin, streptomycin, amphotericin B) at 37 °C in a humidified atmosphere containing 5% CO2. All media and supplements were purchased from Lonza Group Ltd. (Basel, Switzerland). Cancer cells were seeded into 96-well plates (5000 cells/well) after an overnight incubation, and the test compounds were added at two different concentrations (10 μM and 30 μM) and incubated for another 72 h under cell-culturing conditions. Finally, 20 μL of a 5 mg/mL MTT solution was added to each well, and the contents were incubated for a further 4 h. The medium was removed, and the precipitated formazan crystals were dissolved in DMSO by shaking at 37 °C for 60 min. The absorbance was measured at 545 nm by using a microplate reader (SPECTROStar Nano, BMG Labtech, Offenburg, Germany). Clinically utilised anticancer agent cisplatin (Ebewe GmbH, Unterach, Austria) was included as a reference molecule. Calculations were performed using the GraphPad Prism 9 software (GraphPad Software Inc., San Diego, CA, USA).

SiHa cells = experiment: MTT antiproliferative assay, SiHa; type: cell-based, human; conditions: Homo sapiens, SiHa, 72 h, values <20% considered negligible, read-out: Growth inhibition (%) ± SEM, SiHa
Procedure: as §1, §2

MCF-7 cells = experiment: MTT antiproliferative assay, MCF-7; type: cell-based, human; conditions: Homo sapiens, 72 h, values <20% considered negligible, read-out: Growth inhibition (%) ± SEM, MCF-7; for inhibition at 10 µM: MCF7, 10 μM; for inhibition at 30 µM: MCF7, 30 μM
Procedure: as §1, §2

MDA-MB-231 cells = experiment: MTT antiproliferative assay, MDA-MB-231; type: cell-based, human; conditions: Homo sapiens, 72 h, values <20% considered negligible, read-out: Growth inhibition (%) ± SEM, MDA-MB-231; for inhibition at 10 µM: MDA-MB-231, 10 μM; for inhibition at 30 µM: MDA-MB-231, 30 μM
Procedure: as §1, §2

A2780 cells = experiment: MTT antiproliferative assay, A2780; type: cell-based, human; conditions: Homo sapiens, 72 h, values <20% considered negligible, read-out: Growth inhibition (%) ± SEM, A2780; for inhibition at 10 µM: A2780, 10 μM; for inhibition at 30 µM: A2780, 30 μM
Procedure: as §1, §2

NIH/3T3 fibroblasts = experiment: MTT assay on fibroblasts (selectivity); type: cell-based, murine; conditions: Mus musculus, 72 h, values <20% considered negligible, read-out: Growth inhibition (%) ± SEM, NIH/3T3; for inhibition at 10 µM: NIH3T3, 10 μM; for inhibition at 30 µM: NIH3T3, 30 μM
Procedure: as §1, §2

[1] = Kinetic aqueous solubility; type: physicochemical; conditions: phosphate buffered saline with 5% DMSO, aqueous with cosolvent or surfactant or cyclodextrin, kinetic from dmso stock; after 2 h, at 37 °C in PBS, pH 7.4, 5% DMSO; target concentration 500 μM; mean ± S.E.M, n = 3
Procedure: (§3) Filtrates and calibration solutions (5–500 μ M) of the kinetic solubility study and starting donor and acceptor solutions of the PAMPA-GI study were investigated by HPLC-DAD-MS. LC-MS analysis was performed using a Waters 2795 HPLC with a Waters 2487 DAD detector coupled with a Micromass Quattro Ultima TMPt quadrupol mass spectrometer equipped with an ESI source. Measurements were performed on a Waters XSelect C18 (150 × 4.6 mm; 3.5 μm) column with a […] eluent flow rate and the temperature set at 40 °C. The composition of eluent A was MilliQ water with 0.1% formic acid, and that of eluent B was an acetonitrile and MilliQ water mixture (95:5, v/v), also with 0.1% formic acid. The following linear gradient program was used: 0–6 min, 10–100% B; this was held for 3 min, then from 9.01 min on, back to the starting composition of 10% B–90% A. The injection volume was 10 μL for each sample. Chromatographic profiles were registered at dual wavelength, 220 and 240 nm. The mass spectrometer was used in negative ion mode for samples 2, 3 and 4b, and in positive ion mode for other samples. The operating parameters of the MS were: Mass range of m/z 150–700. Nitrogen gas flow rate was 350 L/h, temperature of 350 °C and pressure of 6 bar. The quadrupol temperature was 120 °C, and the capillary voltage was 2.5 kV. Fragmentor’s voltage of 60 V.
(§4) Intestinal (GI) permeability was determined by using an intestinal-specific parallel artificial membrane permeability assay (PAMPA-GI [36]]). […] All solutions were filtered by MultiScreen HTS Vacuum Manifold (Merck Ltd., Budapest, Hungary) after the incubation period. The target concentration was 500 μM for every sample investigated. The intestinal-specific effective permeability of the samples was determined by PAMPA-GI. To prepare starting solutions for a 96-well donor plate, 15 μLs of the 10 mM DMSO stock solution of investigation compounds and 285 μL pH 6.5 phosphate buffer solution were mixed. These solutions were left in a shaking incubator (300 rpm) at 25 °C for 1 h. Meanwhile, a 96-well acceptor plate was filled with 300 μL of pH 7.4 PBS buffer solution containing 5% DMSO. The intestinal-specific artificial membrane was prepared the following way: the hydrophobic filter material of the donor plate was coated with a mixture of phosphatidylcholine/cholesterol = 2:1 (5 μL, 4 % (w/v) in dodecane). After that, all donor wells were filled with 150 μL of the starting donor solutions, and they were carefully placed on the acceptor plate and incubated at 37 °C for 4 h. After the end of the incubation period the donor and acceptor plates were separated carefully. A total of 150 μL of the donor, acceptor and the starting donor solutions were sampled and analysed with HPLC-DAD-MS. The effective permeability and membrane retention of drugs were calculated using the following equations: Pe=−2.303/A·(t−τss)·1/1+rv·lg[−rv+(1+rv/1−MR)·]CD(t)/CD(0) MR=1−CD(t)/CD(0)−VA·CA(t)/VD·CD(0) where Pe is the effective permeability coefficient (cm/s), A is the filter area (0.3 cm^2), VD and VA are the volumes in the donor (0.15 cm^3) and acceptor phase (0.3 cm^3), t is the incubation time (s), τSS is the time to reach steady-state (s), CD(t) is the concentration of the compound in the donor phase at time point t (mol/cm^3), CD(0) is the concentration of the compound in the donor phase at time point zero (mol/cm^3), rv is the aqueous compartment volume ratio (VD/VA), MR is the membrane retention factor.

[2] = Intestinal-specific parallel artificial membrane permeability assay (PAMPA-GI); type: in vitro ADME; conditions: gradient pH system (pH donor 6.5 → pH acceptor 7.4) after 4 h, at 37 °C, mean ± S.E.M, n = 3
Procedure: as §3, §4

SMILES | inhibition at 10 µM (HeLa cells) | inhibition at 30 µM (HeLa cells) | inhibition at 10 µM (SiHa cells) | inhibition at 30 µM (SiHa cells) | inhibition at 10 µM (MCF-7 cells) | inhibition at 30 µM (MCF-7 cells) | inhibition at 10 µM (MDA-MB-231 cells) | inhibition at 30 µM (MDA-MB-231 cells) | inhibition at 10 µM (A2780 cells) | inhibition at 30 µM (A2780 cells) | inhibition at 10 µM (NIH/3T3 fibroblasts) | inhibition at 30 µM (NIH/3T3 fibroblasts) | solubility kinetic at 2 h [1] | Papp at 4 h, 500 µM ([2]; PAMPA, read-out: PAMPA-GI Pe) | PAMPA-GI MR (membrane retention) [2] | melting point
COC(=O)[C@]1(C)CCC[C@@]2(C)[C@@H]3CCC4(O)C[C@@]3(CC[C@@H]21)[C@@H](O)[C@]4(O)CN[C@H](C)c1ccc(F)cc1 [Compound 11, (4R,4aS,6aR,7R,8R,11aS,11bS)-Methyl 8-((((R)-1-(4-Fluorophenyl)ethyl)amino)methyl)-7,8,9-trihydroxy-4,11b-dimethyltetradecahydro-6a,9-methanocyclohepta[a]naphthalene-4-carboxylate] | 95.4 ± 1.08% | 95.8 ± 1.11% | 93.66 ± 0.85% | 94.59 ± 0.49% | 96.23 ± 0.59% | 96.27 ± 0.65% | 93.66 ± 0.59% | 94.31 ± 0.51% | 97.06 ± 0.3% | 97.51 ± 0.22% | 44.4 ± 0.7% | 90.5 ± 1.16% | 145 ± 14.1 µM (≈ 73.2 µg/mL) | 0.48 ± 0.05 ×10⁻⁶ cm/s | 22.4 ± 2.0% | 63 to 67 °C
COC(=O)[C@]1(C)CCC[C@@]2(C)C3CC[C@]4(O)C[C@@]3(CCC21)[C@@H](O)[C@]4(O)CN[C@H](C)c1ccc2ccccc2c1 (stereo partly drawn) [Compound 12, (4R,6aR,7R,8R,9S,11bS)-Methyl 7,8,9-Trihydroxy-4,11b-dimethyl-8-((((R)-1-(naphthalen-2-yl)ethyl)amino)methyl)tetradecahydro-6a,9-methanocyclohepta[a]naphthalene-4-carboxylate] | 96.82 ± 0.56% | 96.94 ± 0.49% | 96.08 ± 0.6% | 95.49 ± 0.86% | 96.35 ± 0.36% | 95.87 ± 0.38% | 95.84 ± 0.29% | 95.62 ± 0.34% | 96.68 ± 0.36% | 96.38 ± 0.3% | 90.07 ± 0.51% | 94.67 ± 0.24% | 13.3 ± 0.9 µM (≈ 7.13 µg/mL) | – | 92.6 ± 2.1% | 93 to 95 °C
COC(=O)[C@]1(C)CCC[C@@]2(C)C3CC[C@]4(O)C[C@@]3(CCC21)[C@@H](O)[C@]4(O)CN[C@@H](C)c1ccc2ccccc2c1 (stereo partly drawn) [Compound 13, (4R,6aR,7R,8R,9S,11bS)-Methyl 7,8,9-Trihydroxy-4,11b-dimethyl-8-((((S)-1-(naphthalen-2-yl)ethyl)amino)methyl)tetradecahydro-6a,9-methanocyclohepta[a]naphthalene-4-carboxylate] | 94.5 ± 1.24% | 94.9 ± 1.29% | 93.8 ± 1.81% | 93.77 ± 0.41% | 95.74 ± 0.64% | 95.44 ± 0.85% | 93.33 ± 0.29% | 93.21 ± 0.46% | 96.64 ± 0.35% | 96.79 ± 0.2% | 72 ± 1.81% | 90.5 ± 1.31% | 11.9 ± 1.8 µM (≈ 6.38 µg/mL) | – | 92.6 ± 1.1% | 81 to 83 °C
COC(=O)[C@]1(C)CCC[C@@]2(C)C3CC[C@]4(O)C[C@@]3(CCC21)[C@@H](O)[C@]4(O)CNCc1cccc2ccccc12 (stereo partly drawn) [Compound 14, (4R,6aR,7R,8R,9S,11bS)-Methyl 7,8,9-Trihydroxy-4,11b-dimethyl-8-(((naphthalen-1-ylmethyl)amino)methyl)tetradecahydro-6a,9-methanocyclohepta[a]naphthalene-4-carboxylate] | 97.2 ± 0.92% | 98.14 ± 0.36% | 97.24 ± 0.39% | 96.7 ± 0.65% | 97.57 ± 0.19% | 97.66 ± 0.28% | 97.41 ± 0.21% | 96.46 ± 0.34% | 92.2 ± 3.33% | 96.81 ± 0.23% | 93.25 ± 0.51% | 97.34 ± 0.26% | 18.9 ± 2.4 µM (≈ 9.86 µg/mL) | – | 94.2 ± 2.0% | 138 to 140 °C
